According to patent US20040106588A1 (priority 2002, published 2004):
Like-named read-outs stand apart in the source and are kept apart here.

Legend:
[1] = Systemic uptake after topical alpha-DFMO, animal studies; type: in vivo; settings: topical application
Excerpt: The generic name for alpha-DFMO is eflomithine, which is a racemic mixture of two enantiomers. […] Nonetheless, it may be possible to obtain the advantages of the present invention as described above using only one or the other of the two enantiomers that form the racemic mixture of alpha-DFMO; accordingly, the use of the term “alpha-DFMO” herein should be understood, for purposes of the present patent application, to include both the racemic mixture of the two enantiomers that normally make up alpha-DFMO, as well as each of the two enantiomers that collectively make up the racemic mixture of alpha-DFMO.

UVB-induced skin cancers [2] = settings: topical, acetone vehicle; cited from earlier work
[3] = test system: II-4 human squamous cell skin cancer cells; experiment: In vitro sulforhodamine B surviving fraction study of alpha-DFMO, triamcinolone and diclofenac; type: cell-based; settings: single drug, Day 1 to Day 7
Description: This study was directed to II-4 human squamous cell skin cancer cells.
The cell culture was maintained as a monolayer culture. The cells were plated in 96 well microtiter plates on Day 0 of the study. Some of such wells were used as control wells, so no drugs were added thereto. The aforementioned combination of drugs was added to the microtiter test wells on Day 1. On Day 7, the plates were fixed with cold 10% trichloroacetic acid, and then washed four times with distilled water. Each plate was then stained with 0.4% sulforhodamine B. Excess stain was then removed by washing the plate four times with 1% acetic acid. The stained dye is then solubilized with 50 mM Tris. The stained plates were then “read”, i.e., measured for optical density, on an automatic plate reader at 540 nm. A lower optical density corresponds to a smaller volume of cancerous cells, and a higher optical density corresponds to a larger volume of cancerous cells. A surviving fraction factor fs is then computed for the treated well plates by taking the mean optical density of the treated well plates and dividing by the mean optical density of the control well plates.
As explained in the aforementioned article by Alberts, et al., a mathematically-derived expected fraction factor (fs*) can be computed for each three-drug combination by multiplying together the individual fraction factors for the three individual drugs. A ratio can then be computed for the actual experimentally-determined fraction factor fs divided by the expected fraction factor fs*, and this ratio is presented in the rightmost column of the table in FIG. 7. […] The lower the ratio, the more synergistic is the combination.

[4] = Skin reactions after topical application in studies treating actinic keratoses; type: in vivo, human; settings: alpha-DFMO alone, without topical steroid or NSAID, past studies
Excerpt: The new combination also provides a new method for treating vulvar neoplasia which is much more likely to be tolerated than currently available methods. […] Though topical application to the inside of the mouth may be more difficult, it is preferably achieved by providing a thick gel or cream, and applying to the affected area, preferably during the middle of the night when the mouth is dry.

UVB-induced skin cancers [5] = settings: p.o.; 38% in placebo treated controls; cited from earlier work
[6] = test system: human lung adenocarcinoma cell line (A549); settings: A549, in vitro; cited from earlier work
actinic keratoses [7] = settings: topical hydrophilic cream, human subjects; cited from earlier work
II-4 cells in SCID mice = experiment: Third study: topical alpha-DFMO, triamcinolone or the combination on II-4 tumor volume in SCID mice; type: in vivo, mouse; settings: single agent, topical daily from 24 hours after implantation; alpha-DFMO 5% or 10%, triamcinolone 0.05% or 0.1%; FIG. 6
Description: The control groups received either no treatment (n=4), or the ointment base (hydrophilic ointment, U.S.P. alone (n=4), or the ointment base (hydrophilic ointment, U.S.P. alone (n=4). Treatments were given daily to the tumor-bearing […] skin continuously beginning 24 hours after tumor implantation. Palpable tumors were measured bi-dimensionally using calipers, three times per week, until tumor sizes approximated 1,500 mm^3 (about 1.5 g). The mice were then euthanized.

[8] = test system: cervical intraepithelial neoplasia level III; settings: cited from earlier work
[9] = test system: Human Cervical Epithelial and Cancerous Cell Lines; settings: in vitro, dose dependent and time dependent, partially through inducing apoptosis; cited from earlier work
[10] = test system: polyamine de novo synthesis and DNA polymerase; settings: colon and small intestine; cited from earlier work
[11] = test system: human colon tumor xenograft (T6) cells; settings: in vitro; cited from earlier work
colon adenocarcinomas = settings: studies referred to by Reddy et al; cited from earlier work
[12] = topical, cited from earlier work
actinic keratoses [13] = settings: 0.5% cream added to topical fluorouracil; cited from earlier work
[14] = 0.06 to 1.0 g/m^2 per day for 30 days

## NCCC[C@](N)(C(=O)O)C(F)F (racemic) [alpha-DFMO, Alpha-Difluoromethylornithine]
[1]
  systemic uptake: negligible systemic uptake
UVB-induced skin cancers [2]
  UVB-induced skin cancers: dramatically reduced
[3]; 50 μM
  surviving fraction factor fs: 0.749
[3]; 75 μM
  surviving fraction factor fs: 0.807
[4]
  incidence of skin reactions: ~20%
UVB-induced skin cancers [5]
  UVB-induced skin cancers in treated animals: 9%
[6]
  growth inhibition: dose-dependent growth-inhibitory effect
Actinic keratoses [7]
  number of AKs on the arms: reduced the number of AKs
II-4 cells in SCID mice
  rate of tumor growth (tumor volume over fifty days): decreases the rate of tumor growth
[8]; 0.06 to 1.0 g/m^2 per day for 30 days, 30 women
  overall response rate: 50%
[8]; [14]
  patients experiencing a complete response: five out of thirty
  patients experiencing a partial response (reduction to levels I or II): ten out of thirty
  toxicity: minimal toxicity
[8]; serum
  dose down to which serum polyamine modulation was significant: 0.125 g/m^2 per day
[8]; tissue
  dose level down to which tissue polyamine modulation was significant: 0.5 g/m^2 per day
[9]
  growth of cervical pre-cancerous and cancerous cells: inhibits the growth
[10]
  DMH-induced activation of polyamine de novo synthesis and DNA polymerase: completely prevented
[11]
  growth inhibition: dose-dependent growth-inhibitory effect
Colon adenocarcinomas
  effect on colon adenocarcinomas: inhibited colon adenocarcinomas

## O=c1[nH]cc(F)c(=O)[nH]1 [5-FU, 5-fluorouracil]
[12]; in the vagina
  tolerability: relatively well tolerated
[12]; on the vulva
  tolerability: extremely poorly tolerated

## CC(=O)Oc1ccccc1C(=O)O [aspirin]
Colon adenocarcinomas
  effect on colon adenocarcinomas: inhibited colon adenocarcinomas

## C=CCSSCC=C [diallyl disulfide]
Colon adenocarcinomas
  effect on colon adenocarcinomas: inhibited colon adenocarcinomas

## O=C(O)Cc1ccccc1Nc1c(Cl)cccc1Cl [diclofenac]
[3]; 150 μM
  surviving fraction factor fs: 0.703
[3]; 175 μM
  surviving fraction factor fs: 0.518

## CC(C)Cc1ccc(C(C)C(=O)O)cc1 (centres unmarked) [ibuprofen]
Colon adenocarcinomas
  effect on colon adenocarcinomas: inhibited colon adenocarcinomas

## Cc1c(-c2cnccn2)ssc1=S [oltipraz]
Colon adenocarcinomas
  effect on colon adenocarcinomas: inhibited colon adenocarcinomas

## CN1C(C(=O)Nc2ccccn2)=C(O)c2ccccc2S1(=O)=O [piroxicam]
Colon adenocarcinomas
  effect on colon adenocarcinomas: inhibited colon adenocarcinomas

## CC1=C(CC(=O)O)c2cc(F)ccc2/C1=C\c1ccc([S+](C)[O-])cc1 (centres unmarked) [sulindac]
Colon adenocarcinomas
  effect on colon adenocarcinomas: inhibited colon adenocarcinomas

## CC1(C)O[C@@H]2C[C@H]3[C@@H]4CCC5=CC(=O)C=C[C@]5(C)[C@@]4(F)[C@@H](O)C[C@]3(C)[C@]2(C(=O)CO)O1 [triamcinolone, triamcinolone acetonide]
[3]; 100 μM
  surviving fraction factor fs: 0.999
[3]; 150 μM
  surviving fraction factor fs: 0.999
[3]; 200 μM
  surviving fraction factor fs: 0.872
Actinic keratoses [13]
  effect on inflammatory response to fluorouracil: reduce inflammatory response
  effect on the effectiveness of fluorouracil: did not alter the effectiveness of the fluorouracil
II-4 cells in SCID mice
  rate of tumor growth (tumor volume over fifty days): decreases the rate of tumor growth
